The results in this text go back to patent US8858967B2, “Dermatological cream-gels containing avermectin compounds” (Galderma S.A., priority 2004, dated 2014).

A short description of this data set: Maximum solubility of ivermectin in solvents. Type of data set: physicochemical. The source says:
By way of example of a solvent and/or a propenetrating agent for the ivermectin active agent, representative are propylene glycol, alcohols such as ethanol, isopropanol, butanol, benzyl alcohol, N-methyl-2-pyrrolidone or DMSO, polysorbate 80; phenoxyethanol, and mixtures thereof.

As for Ivermectin, the “Maximum % solubility of ivermectin in the solvent under consideration (weight/weight)” value (from here on “Maximum % solubility … (weight/weight)”) (solvent N-methyl-2-pyrrolidone) is listed as 58.13 % (weight/weight), the “Maximum % solubility … (weight/weight)” value (solvent propylene glycol/oleic acid (4 parts/2 parts)) is on record as 27.31 % (weight/weight) and the “Maximum % solubility … (weight/weight)” value (solvent propylene glycol/polysorbate 80/phenoxyethanol (4 parts/1 part/1 part)) is recorded as 28.63 % (weight/weight).
